Experimental data reported in publication PMC2725291, “Genetic and Molecular Basis of Individual Differences in Human Umami Taste Perception” (PLoS ONE, 2009).

Molecular target: T1, TAS1R1-372A and TAS1R3-757R (Homo sapiens, UniProt Q7RTX0+Q7RTX1, C757R)
T1 construct: expressed in transfected cells; host or cells: HEK293
T1 sequence (Q7RTX1 21-841): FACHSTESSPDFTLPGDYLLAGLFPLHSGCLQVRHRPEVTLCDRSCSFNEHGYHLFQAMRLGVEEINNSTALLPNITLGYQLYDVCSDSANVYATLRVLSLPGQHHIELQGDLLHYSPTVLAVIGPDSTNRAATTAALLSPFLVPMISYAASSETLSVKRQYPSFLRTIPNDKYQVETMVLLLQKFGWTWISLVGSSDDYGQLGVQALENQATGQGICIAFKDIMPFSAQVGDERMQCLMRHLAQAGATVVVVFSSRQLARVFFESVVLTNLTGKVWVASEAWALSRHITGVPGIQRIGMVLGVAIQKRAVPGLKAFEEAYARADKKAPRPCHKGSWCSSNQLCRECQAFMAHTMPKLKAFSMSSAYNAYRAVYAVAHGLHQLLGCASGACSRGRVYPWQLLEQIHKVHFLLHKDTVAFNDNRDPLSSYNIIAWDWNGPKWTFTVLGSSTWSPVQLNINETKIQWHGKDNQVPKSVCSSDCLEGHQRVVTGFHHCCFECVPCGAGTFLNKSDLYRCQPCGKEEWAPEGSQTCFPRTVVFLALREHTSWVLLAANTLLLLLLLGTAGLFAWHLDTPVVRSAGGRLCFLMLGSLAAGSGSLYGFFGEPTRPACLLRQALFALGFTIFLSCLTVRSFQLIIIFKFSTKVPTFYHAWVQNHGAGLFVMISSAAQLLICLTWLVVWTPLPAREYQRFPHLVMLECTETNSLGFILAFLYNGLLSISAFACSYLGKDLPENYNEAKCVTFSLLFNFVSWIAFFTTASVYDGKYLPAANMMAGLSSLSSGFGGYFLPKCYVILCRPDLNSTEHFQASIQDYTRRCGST
T1 sequence (Q7RTX0 21-852 C757R): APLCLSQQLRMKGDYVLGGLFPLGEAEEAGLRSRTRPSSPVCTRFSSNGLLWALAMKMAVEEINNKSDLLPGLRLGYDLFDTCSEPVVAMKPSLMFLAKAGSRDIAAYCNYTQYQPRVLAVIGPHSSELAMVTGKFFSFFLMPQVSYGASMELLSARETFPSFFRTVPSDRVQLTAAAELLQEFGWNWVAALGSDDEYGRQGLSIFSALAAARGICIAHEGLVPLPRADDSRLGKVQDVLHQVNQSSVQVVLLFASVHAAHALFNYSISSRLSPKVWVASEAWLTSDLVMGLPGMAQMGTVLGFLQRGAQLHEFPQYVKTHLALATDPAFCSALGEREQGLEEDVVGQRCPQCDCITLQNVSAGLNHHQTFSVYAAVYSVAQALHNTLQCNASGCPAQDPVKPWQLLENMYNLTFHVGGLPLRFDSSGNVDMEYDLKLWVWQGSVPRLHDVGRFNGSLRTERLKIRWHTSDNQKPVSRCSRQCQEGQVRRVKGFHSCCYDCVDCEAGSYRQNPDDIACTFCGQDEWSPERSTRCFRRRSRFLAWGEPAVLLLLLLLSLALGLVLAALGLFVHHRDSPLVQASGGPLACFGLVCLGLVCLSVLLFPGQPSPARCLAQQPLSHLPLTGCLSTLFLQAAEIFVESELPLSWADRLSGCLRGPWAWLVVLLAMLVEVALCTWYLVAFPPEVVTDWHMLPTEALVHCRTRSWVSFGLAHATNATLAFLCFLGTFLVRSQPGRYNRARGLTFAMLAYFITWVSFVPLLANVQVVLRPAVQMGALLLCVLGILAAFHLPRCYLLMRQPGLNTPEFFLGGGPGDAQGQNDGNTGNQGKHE
Assay: Ca2+ imaging (bath perfusion) in HEK cells transfected with TAS1R1-372A, TAS1R3-757R and Gα16-i3
Format: cell-based
Settings: 5∼100 mM
Experimental: HEK293 cells were cultured at 37°C under a humidified atmosphere containing 5% CO2 in Dulbecco's modified Eagle's medium supplemented with 10% fetal bovine serum. To obtain reproducible Ca^2+ responses, cells were split every 2 days before cells become confluent. Cells were discarded after 2 months of passages and new cells were prepared from frozen-stock. For calcium imaging experiments, cells were seeded onto a 35 mm recording chamber or poly-D-lysine coated 96-well black-wall, clear-bottom recording plates. After 24 hrs at 37°C, confluent cells (60∼70%) were washed in OptiMEM medium supplemented with GlutaMAX-I (invitrogen) and plasmid DNAs were transiently cotransfected into HEK293 cells using Lipofectamine2000 regent (invitrogen) (2.0 µl per 1.0 µg DNA). TAS1Rs (or their mutants) and Gαl6-i3 were transfected using 1.5 and 1.0 µg of plasmid for 35 mm recording chambers, 0.09 and 0.06 µg of plasmid per well for 96-well plates, respectively. […] Immuno staining and Ca^2+ imaging assays were performed 36∼40 hrs after transfection.
Two Ca^2+ imaging systems were used. A bath perfusion system was used for kinetics of activation. Transfected cells in 35 mm recording chambers were washed in Hank's balanced salt solution (HBSS) containing 10 mM HEPES, pH 7.4, and loaded with 3.0 µM Fluo-4 acetoxymethyl ester (invitrogen) for 1.0 hr at 37°C. The dye-loaded cells were subjected to Ca^2+ imaging. Taste solutions diluted in HBSS were applied sequentially to the cells for 30 s with a peristaltic pump at a flow rate of 1.5 ml/min, and fluorescence images were obtained using a S Fluor ×20/0.75 objective lens (Nikon) via a cooled-CCD camera (C6790, Hamamatsu Photonics) fitted to a TE300 microscope (Nikon). Acquisition and analysis of these fluorescence images used AquaCosmos software (v. 1.3, Hamamatsu Photonics). A 3 min interval was left between each tastant application to ensure that the cells were not desensitized as a result of the previous application of tastants. Responses were measured from 30 individual responding cells. […] Isoproterenol (ISO, 10 µM) was used as positive control, which stimulates endogenous β-adrenergic receptors, providing that the Gα16-dependent signal transduction cascade was functional.

N[C@@H](CCC(=O)O)C(=O)[O-].[Na+] [MSG, monosodium glutamate] was tested, and the “activation (Ca2+ mobilization) of transfected cells” value was “elicited transient intracellular calcium increases”.
